Like-named read-outs stand apart in the source and are kept apart here.
How the values were obtained:
[1] = Pharmacokinetics study in mice: erlotinib pretreatment, carbazeran and 4-oxo-carbazeran; type: in vivo, BALB/c mice; conditions: for AUC0-∞ / Cmax / Tmax / AUC(0-inf): blood; for AUC0-∞ / Cmax / Tmax / MRT0-∞ / AUC(0-inf) / CL/F / MRT inf: carbazeran 10 mg/kg p.o.; for CL/F: read-out: Apparent oral clearance (CL/F) (converted); for MRT inf: read-out: MRT0-∞
Protocol: BALB/c mice (male, ∼8 weeks old) were purchased and housed at the Biological Resource Centre, Agency for Science, Technology and Research (A∗STAR). The experimental protocol was approved by the A∗STAR Institutional Review Board. […] Blood (12.5 μL) was drawn from the tail vein (with a needle prick) at various times (0.25, 0.5, 0.75, 1, 2, 3, 4, 6, and 8 hours) after carbazeran dosing. The blood samples were diluted 2 times with 12.5 μL of water. Acetonitrile containing the internal standard (carbazeran-d4, 4 nM in 75 μL acetonitrile and 3 nM in final sample volume of 100 μL) was added to the blood samples to precipitate proteins. […] Blank and standard calibration samples were prepared from control mice that were not treated with any chemicals. Pharmacokinetic data were analyzed by noncompartmental analysis using Phoenix WinNonlin 6.3 (Certara).
At the end of the last blood collection (8 hour post-carbazeran dosing), the mice were sacrificed. […] The tissue samples were homogenized, and a 12.5 μL aliquot of the homogenate was diluted with an equal volume of water. Acetonitrile containing the internal standard (carbazeran-d4, 4 nM in 75 μL acetonitrile and 3 nM in final sample volume of 100 μL) was added to the diluted tissue samples (25 μL) to precipitate the proteins.

human recombinant AOX1 = molecular target: T1, human recombinant AOX1 (Homo sapiens, UniProt Q06278); assay: Time-dependent inactivation of carbazeran 4-oxidation by human recombinant AOX1; type: biochemical; conditions: each 10 μM (raloxifene 0.02 μM), 30-minute preincubation, vs vehicle control without preincubation
T1 construct: purchased Cypex Ltd CYP150
T1 sequence (Q06278 1-1338): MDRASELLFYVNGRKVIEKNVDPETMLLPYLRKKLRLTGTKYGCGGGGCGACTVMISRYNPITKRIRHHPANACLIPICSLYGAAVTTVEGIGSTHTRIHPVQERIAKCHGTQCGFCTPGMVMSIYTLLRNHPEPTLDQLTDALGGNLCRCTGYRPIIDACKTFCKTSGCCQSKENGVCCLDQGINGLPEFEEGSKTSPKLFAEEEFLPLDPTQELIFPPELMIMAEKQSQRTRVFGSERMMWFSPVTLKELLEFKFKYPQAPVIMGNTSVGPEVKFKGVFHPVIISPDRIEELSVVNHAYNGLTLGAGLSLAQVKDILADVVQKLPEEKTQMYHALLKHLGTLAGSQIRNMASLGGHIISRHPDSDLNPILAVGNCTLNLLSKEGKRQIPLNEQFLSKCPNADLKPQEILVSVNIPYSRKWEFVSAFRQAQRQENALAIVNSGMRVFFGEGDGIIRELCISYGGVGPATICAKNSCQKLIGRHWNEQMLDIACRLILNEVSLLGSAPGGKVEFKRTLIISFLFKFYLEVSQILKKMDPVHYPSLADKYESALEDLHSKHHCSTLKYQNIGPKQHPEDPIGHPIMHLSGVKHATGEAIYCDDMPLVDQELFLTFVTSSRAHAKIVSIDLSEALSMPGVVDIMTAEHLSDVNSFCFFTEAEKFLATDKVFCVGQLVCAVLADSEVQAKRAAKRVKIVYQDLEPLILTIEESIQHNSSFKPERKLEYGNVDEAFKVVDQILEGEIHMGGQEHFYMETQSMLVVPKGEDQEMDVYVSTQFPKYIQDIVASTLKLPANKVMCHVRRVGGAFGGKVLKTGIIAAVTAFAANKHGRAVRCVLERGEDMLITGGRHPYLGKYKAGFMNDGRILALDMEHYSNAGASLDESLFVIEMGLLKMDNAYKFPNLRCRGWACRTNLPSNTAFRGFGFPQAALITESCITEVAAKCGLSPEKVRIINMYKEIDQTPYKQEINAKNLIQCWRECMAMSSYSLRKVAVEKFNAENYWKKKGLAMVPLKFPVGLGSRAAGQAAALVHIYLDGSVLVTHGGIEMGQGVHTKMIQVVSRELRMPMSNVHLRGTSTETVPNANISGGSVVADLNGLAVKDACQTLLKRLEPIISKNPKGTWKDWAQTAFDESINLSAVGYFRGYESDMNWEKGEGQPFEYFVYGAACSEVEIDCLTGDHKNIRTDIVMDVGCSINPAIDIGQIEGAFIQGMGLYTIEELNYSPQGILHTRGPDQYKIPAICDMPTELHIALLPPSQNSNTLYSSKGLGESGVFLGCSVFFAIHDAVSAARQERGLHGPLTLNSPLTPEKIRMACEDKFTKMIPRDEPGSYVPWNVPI
Protocol: (§1) Carbazeran 4-oxidation and O^6-benzylguanine 8-oxidation were deployed as AOX1-selective catalytic markers.[27] The assay conditions (amount of cytosolic protein, incubation time, and substrate concentration) for carbazeran 4-oxidation catalyzed by human recombinant AOX1 and human/rat/mouse liver cytosols were optimized previously.[7]^,[25]
(§2) Enzymatic reaction was initiated by adding human liver cytosol (100 μg). After the specified preincubation duration, an aliquot (10 μL) of the preincubation mixture was transferred to 190 μL of a prewarmed (for 3 minutes at 37 °C) secondary incubation mixture (total volume of 200 μL) containing potassium phosphate buffer and carbazeran (15 μM) or O^6-benzylguanine (150 μM), which yielded a 20-fold dilution of the primary incubation mixture. The secondary incubation mixture was incubated for 5 minutes at 37 °C before the enzymatic reaction was terminated with 200 μL of ice-cold acetonitrile containing carbazeran-d4 (2.5 nM final concentration; internal standard for 4-oxo-carbazeran) or tolbutamide (25 nM final concentration; internal standard for 8-oxo-O^6-benzylguanine). Each sample was immediately mixed by vortex, placed on ice, centrifuged at 16,000g for 15 minutes at 4 °C and stored at –30 °C until ultra-high performance liquid chromatography–tandem mass spectrometry (UPLC-MS/MS) analysis. For enzyme inactivation assays involving rat and mouse liver cytosol and recombinant AOX1 assays, the experimental conditions were similar to those of human liver cytosol, except that the amount of cytosolic protein was 200 μg (rat) and 150 μg (mouse), respectively, and the incubation time of the secondary incubation mixture was 60 minutes. For the recombinant AOX1 enzyme assay, the amount of enzyme was 100 μg, the incubation time of the secondary incubation mixture was 15 minutes, and the total volume of the primary and secondary incubation mixtures was reduced to 100 μL.
An aliquot (10 μL) of the primary incubation mixture was transferred to a secondary incubation mixture containing carbazeran (15 μM) and incubated for (A) 180, (B) 5, or (C, D) 120 minutes.

[2] = molecular target: T2, human liver cytosolic AOX1 (Homo sapiens, UniProt Q06278); assay: Effects of a competing AOX1 substrate and a competitive AOX1 inhibitor on AOX1 inactivation; type: biochemical; parameters: Enzymatic reaction was initiated by adding human liver cytosol (100 μg); tissue Corning, Inc. (Gentest brand) 452115; host or cells: human liver cytosol, pool of 150 donors; conditions: 120 and 240 μM, human liver cytosol (data not shown)
T2 sequence (Q06278 1-1338): T1 sequence (Q06278 1-1338)
Protocol: The molar ratio of O^6-benzylguanine (120, 240, and 480 μM) to 3-vinylerlotinib (10 μM) was 12, 24, and 48, O^6-benzylguanine to 4′-methylerlotinib (3 μM) was 40, 80, and 160, and O^6-benzylguanine to 2-methylerlotinib (1 μM) was 120, 240, and 480, respectively. […] Each standard incubation mixture was subjected to the same procedures as described in Enzyme Inactivation Experiments. The residual AOX1 enzyme activity was determined by the carbazeran 4-oxidation or O^6-benzylguanine 8-oxidation assay.

[3] = molecular target: T2, human liver cytosolic AOX1; assay: Enzyme inactivation of human liver cytosolic AOX1-mediated carbazeran 4-oxidation
Protocol: as §1, §2
Preliminary experiments were performed to optimize the incubation time and concentration of an inactivator to ensure a log-linear decrease in enzyme activity over time and that the kobs versus inactivator concentration plot reaches a plateau for the determination of the kinact value. The observed first-order rate constant for inactivation (kobs), maximal inactivation rate constant (kinact), half-maximal inactivation concentration (KI), and the time required for half of the enzyme molecules to be inactivated (t1/2) were calculated as described in our previous publication.[28]

[4] = molecular target: T2, human liver cytosolic AOX1; assay: Partition ratio determination (titration, human liver cytosol); type: biochemical; parameters: Enzymatic reaction was initiated by adding human liver cytosol (100 μg); tissue Corning, Inc. (Gentest brand) 452115; host or cells: human liver cytosol, pool of 150 donors
Protocol: The enzyme kinetic experiments were conducted as described above. The incubation was allowed to proceed until saturation of enzyme has been reached (6 or 18 minutes, as specified in each figure legend). Carbazeran 4-oxidation was plotted against the ratio of inactivator concentration to AOX1 protein concentration in the incubation mixture of 200 μL. The specific lot of human liver cytosol (#38292) used in this study contained 1.05 ± 0.01 pmol/μL (mean ± SD) of AOX1 protein, as assessed by capillary nanoproteomic immunoassay.[27] The turnover number was the extrapolation of the intercept of the 2 linear regression lines to the x-axis, which was determined by solving the 2 linear regression equations. The partition ratio was calculated by subtracting the turnover number by 1, assuming 1:1 stoichiometry between the inactivator and the enzyme.[29]

[5] = molecular target: T2, human liver cytosolic AOX1; type: biochemical; parameters: Enzymatic reaction was initiated by adding human liver cytosol (100 μg); tissue Corning, Inc. (Gentest brand) 452115; host or cells: human liver cytosol, pool of 150 donors; conditions: potassium ferricyanide 2 mM, 0 or 6 min preincubation
Protocol: The residual AOX1 enzyme activity was determined by the carbazeran 4-oxidation assay.
A test chemical at a concentration described above was incubated with human liver cytosol (100 μg protein) at 37 °C for 0 or 6 minutes. […] After 10-minute incubation, an aliquot (50 μL) of the […] (total volume of 200 μL) containing potassium phosphate buffer and carbazeran (15 μM), which yielded a 4-fold dilution of the secondary incubation mixture. The residual AOX1 enzyme activity was determined as described above.

[6] = erlotinib 100 mg/kg p.o. 2 h before
[7] = male, BALB/c, mouse, whole blood, po, 10 mg/kg, Control (vehicle pretreatment)
[8] = male, BALB/c, mouse, whole blood, po, 10 mg/kg, erlotinib 100 mg/kg p.o. 2 h before
[9] = human liver cytosol, carbazeran 4-oxidation

CCNC(=O)OC1CCN(c2n[nH]c(=O)c3cc(OC)c(OC)cc23)CC1 [4-Oxo-Carbazeran, 4-oxo-carbazeran]
Ratio of AUC0-∞ (metabolite) to AUC0-∞ (parent) ([1]; Control (vehicle pretreatment)): 0.31 ± 0.06
Ratio of AUC0-∞ (metabolite) to AUC0-∞ (parent) ([1]; Control (vehicle pretreatment), listed as 4-oxo-carbazeran): 0.31
AUC0-∞ ([1]; Control (vehicle pretreatment)): 0.78 ± 0.23 µM·h
Cmax ([1]; Control (vehicle pretreatment)): 920 ± 390 nM
Tmax ([1]; Control (vehicle pretreatment)): 19.2 ± 7.2 min
AUC0-∞ [1, 6]: 0.027 ± 0.009∗∗∗∗ μM.h
Cmax [1, 6]: 8 ± 3 nM
Tmax [1, 6]: 27.6 ± 16.2 min
MRT0-∞ ([1]; Control (vehicle pretreatment)): 0.98 ± 0.19 h
MRT0-∞ [1, 6]: 8.98 ± 8.73∗ h
Ratio of AUC0-∞ (metabolite) to AUC0-∞ (parent) ([1]; erlotinib 100 mg/kg p.o. 2 h before carbazeran): 0.007 ± 0.003∗∗∗∗

CCNC(=O)OC1CCN(c2nncc3cc(OC)c(OC)cc23)CC1 [Carbazeran, carbazeran]
AUC(0-inf) [1, 7]: 2.52 ± 0.46 µM·h
Cmax [1, 7]: 3470 ± 1390 nM
AUC(0-inf) [1, 8]: 4.6 ± 2.02 µM·h
Cmax [1, 8]: 3530 ± 2180 nM
CL/F [1, 7]: 188 mL/min/kg
MRT inf [1, 7]: 79.2 ± 26.4 min
CL/F [1, 8]: 114 mL/min/kg
MRT inf [1, 8]: 139 ± 45.6 min
Tmax ([1]; male, BALB/c, mouse, whole blood, po, Control (vehicle pretreatment), read-out: Tmax): 17.4 ± 5.4 min

Oc1cc2ncnc(Nc3ccc(F)c(Cl)c3)c2cc1OCCCN1CCOCC1 [O-desmethylgefitinib]
decrease in carbazeran 4-oxidation (human recombinant AOX1): did not decrease

COc1cc2ncnc(Nc3ccc(F)c(Cl)c3)c2cc1O [O-desmorpholinopropylgefitinib]
decrease in carbazeran 4-oxidation (human recombinant AOX1): did not decrease

Nc1nc(OCc2ccccc2)c2nc[nH]c2n1 [O^6-benzylguanine]
effect of O^6-benzylguanine alone on carbazeran 4-oxidation [2]: did not affect the activity

CCc1cccc(Nc2ncnc3cc(OCCOC)c(OCCOC)cc23)c1 [Tetrahydroerlotinib, tetrahydroerlotinib]
KI ([3]; half-maximal inactivation concentration, human liver cytosol, carbazeran 4-oxidation): No inactivation
kinact ([3]; human liver cytosol 100 μg, carbazeran 15 μM, 37 °C): No inactivation
decrease in carbazeran 4-oxidation ([3]; human liver cytosol, 10 μM (raloxifene 0.02 μM), 30-minute preincubation): did not decrease
decrease in carbazeran 4-oxidation ([3]; human liver cytosol, 50 μM, 120 minutes preincubation): did not decrease
Inactivation t1/2 [3, 9]: No inactivation
kinact/KI [3, 9]: No inactivation
KI,u ([3]; unbound, KI,u = fu × KI, fu at 10 μM in human liver cytosol): No inactivation
Turnover Number ([4]; human liver cytosol): No inactivation
Partition Ratio ([4]; turnover number minus 1): No inactivation
effect of coincubation or postincubation with potassium ferricyanide on AOX1 inactivation [5]: not changed

Reference: PMC12881681 (Molecular Pharmacology, 2025)
